The source of these data is patent US20240245703A1, “TOPICAL APPLICATION OF AGENTS TO REDUCE SUN SENSITIVITY AND IMPROVE TOPICAL PHOTODYNAMIC THERAPY” (Wright State University, priority 2021, published 2024).

One data set concerns UVB-induced erythema. Nature of the data set: UVB-induced skin erythema (Mexameter) in wild-type and XPA KO mice. Type of data set: in vivo. As to conditions: WT and XPA KO mice, 5 kJ/m^2 UVB, 100 μL 500 μM topical immediately after, 4 h; effect most noted in XPA KO. Here is the method: Erythema was measured by a Mexameter® device (Courage+Khazaka electronic GmbH, Cologne, Germany) before treatment and after 4 hours of treatment. […] UVB-induced skin inflammation involves many cytokines including interleukin-6 (IL-6) and tumor necrosis factor-alpha (TNFα).
Groups of 6-8 mice underwent erythema measurements with a Mexameter® device before irradiation with various fluences (1.0, 2.5, and 5.0 kJ/m^2) of UVB or no UVB (sham), and four hours later erythema was measured to determine the cutaneous erythema and cytokine responses of UVB irradiation on wild-type vs XPA KO mice. Similarly, triplicate skin biopsies were obtained and mRNA isolated, and quantitative reverse transcription polymerase chain reaction (qRT-PCR) used to quantify mRNA levels of cytokines TNF ? and IL-6. The housekeeping gene GAPDH was used as control. […] The data is shown as the mean±S.E. of fold change in baseline erythema levels. * Denotes statistically significant (P<0.05) differences between UVB- and sham-treated mice. #Denotes statistically significant (P<0.05) differences between XPA KO and wild-type erythema responses.
The data is shown as the mean±S.E. of fold change in baseline erythema levels. * Denotes statistically significant (P<0.05) differences between UVB- and sham-treated mice

The subject of the next data set is human skin explants. Nature of the data set: PDT-induced MVP release in human skin explants ex vivo. Particulars: 100 μL of 5 mM added post-PDT, 4 h. Type of data set: cell-based. As for the experimental part: For the data shown in FIG. 14, HaCaT keratinocytes were treated with sham (no treatment), 0.1% ethanol vehicle control (VEH), 100 nM TPA, 100 nM CPAF, 1 mM 5-ALA for 4 hours, or 5-ALA followed by various fluences (2.5-20 J/cm^2) of blue light or blue light alone. Levels of MVPs released into supernatants were measured at 4 hours. […] For the data shown in FIG. 15, human skin explants were treated with sham, 100 μL vehicle (90% ethanol+10% DMSO) (VEH), 1 μM TPA, 1 µM CPAF, 1 mM 5-ALA for 4 hours, blue light or 5-ALA+blue light at 20 J/cm^2. After four hours, duplicate 6-mm punch biopsies were obtained, weighed, and MVPs were measured. The data are the mean±SE from 3-4 separate experiments conducted in duplicate. * Denotes statistically significant (P <0.05) changes from sham values.
Supernatants were collected at 4 hours and MVP measured. The data are the mean±SE MVP fold change from sham-treated values. For the data shown in FIG. 17, human skin explants were treated as in FIG. 15, with the exception that in some experiments 100 μL of 5 mM IMIP was added post-PDT. MVP were measured in duplicate 6-mm punch biopsies obtained 4 hours post-treatment.

The subject of another data set is PDT-induced MVP release. Nature of the data set: PDT-induced MVP release in skin and plasma of mice. Type of data set: in vivo. As to conditions: wild-type mice, PDT 20 J/cm^2 blue light, 100 μl of 5 mM topical immediately after, 4 h. As for the experimental part: Next, the role of PAF and aSMase in PDT-induced MVP release was assessed. […] Next, the ability of topical PDT to generate MVP in vivo in mice, and the role of aSMase in this process, was determined. […] Two approaches were used to determine if PDT-induced MVP involved aSMase.
The role of aSMase in PDT-mediated MVP release was evaluated in a murine system. For the data shown in FIG. 18, wild-type mice were treated with either sham, 100 μl of 5 mM IMIP, or 90% polyethylene glycol: 10% DMSO vehicle, or 1 μM TPA (as a positive control for MVP release), or PDT using 20 J/cm^2 blue light. Immediately following PDT, the treated areas were given vehicle or imipramine. At 4 hours post-treatment, the mice were euthanized and MVP were measured from duplicate 6-mm punch biopsies and plasma. The data are mean±SD fold increase in MVP normalized to tissue weight/plasma volume. * Denotes statistically significant (P<0.05) changes from sham; #statistically significant (P<0.05) changes from comparator denoted by line by two-way ANOVA; NS not statistically significant.
To confirm the role of aSMase in PDT-induced MVP generation, PDT effects were evaluated in the absence of aSMase was evaluated in a murine system. For the data shown in FIG. 19, wild-type or aSMase-deficient (Smpd1−/−) mice underwent sham or PDT using 20 J/cm^2 blue light. At 4 hours post-treatment, the mice were euthanized and MVP were measured from duplicate 6-mm punch biopsies and plasma. The data are mean±SD fold increase in MVP normalized to tissue weight/plasma volume. * Denotes statistically significant (P<0.05) changes from sham; NS not statistically significant.

The test system of a further data set is UVB-induced MVP release. Nature of the data set: MVP release after localized UVB irradiation of volar forearm of human subjects. As to conditions: human photosensitive vs normal subjects, 1 KJ/m^2 UVB, 4% imipramine immediately after, biopsies 4 h. It counts as in vivo. The text has this: FIG. 22A compares normal subjects to subjects who have active photosensitivity disorders as denoted by positive screening. […] The individual data points are shown in FIG. 22A with the mean±SE of the groups for the UVB+vehicle for the normal and photosensitive subjects.

A further data set relates to HaCaT XPA KO. Nature of the data set: UVB-induced MVP release in HaCaT XPA deficient cells. As to conditions: HaCaT XPA KO cell line. Type of data set: cell-based, human. Here is the method:
HaCaT cells and HaCaT XPA deficient cells received no treatment (NT) or 1 KJ/m^2, 2.5 KJ/m^2, or 5 KJ/m^2 UVB radiation. After 4 hours, the supernatant was removed and the MVP concentration was measured. The numbers of MVP shown in FIG. 1 were normalized to cell count and NT. Data in FIG. 1 show the mean+S.E. fold change of at least three experiments. Groups were compared using One-Way ANOVA. (P<0.01) was considered statistically significant. * denotes changes between NT and UVB. #denotes changes between HaCaT and HaCaT XPA deficient cells.

In the next data set the test system is aSMase. As to conditions: cited from earlier work.
For data set [1] the following is noted: hairless mice, effect of propylene glycol; cited from earlier work.

For the molecule `CN(C)CCCN1c2ccccc2CCc2ccccc21` [Imipramine], in the data set on UVB-induced erythema, the UVB-induced erythema response result is recorded as “blocked the erythema responses”. Further, the “PDT-induced MVP release” value with human skin explants is listed as “blocked PDT-induced MVP release”. Also, the “PDT-induced MVP release in skin and plasma” value in the data set with PDT-induced MVP release is “blocked MVP release”. Also, the “UVB-induced MVP release in forearm skin” value in the data set with UVB-induced MVP release is given as “blocks the increased MVP release selectively in the photosensitive subjects”. Also, in the data set with HaCaT XPA KO, the “increased MVP generation of XPA deficient keratinocytes” value is listed as “blocked by imipramine”. Moreover, in the data set on aSMase (10 micromolar, PC12 cells, incubation time 0.5 h, % of corresponding control values), the “Residual ASM Activity” value is given as 32.6%. The “residual aSMase activity after treatment” value in the data set on aSMase (from Kornhuber et al. 2008) was 30.6%. The “absorption with propylene glycol” value in data set [1] is given as “enhances absorption”.
